# Source: ChEMBL document CHEMBL5465560, “Selectivity Literature for EUbOPEN Chemogenomic Library” (2024)
# Columns and labels:
# [1] = molecular target: CDK1/Cyclin A (Homo sapiens) (UniProt P06493+P20248); experiment: Selectivity interaction (LanthaScreen Eu Kinase Binding Assay) EUB0001632a CDK1; type: protein-complex assay; settings: at 10 µM
# [2] = molecular target: Ribosomal protein S6 kinase alpha-3 (Homo sapiens, UniProt P51812); experiment: Selectivity interaction (KinomeScan (DiscoverX)) EUB0000607a RPS6KA3; settings: at 10 µM
# Chain of Ribosomal protein S6 kinase alpha-3 (P51812 whole entry): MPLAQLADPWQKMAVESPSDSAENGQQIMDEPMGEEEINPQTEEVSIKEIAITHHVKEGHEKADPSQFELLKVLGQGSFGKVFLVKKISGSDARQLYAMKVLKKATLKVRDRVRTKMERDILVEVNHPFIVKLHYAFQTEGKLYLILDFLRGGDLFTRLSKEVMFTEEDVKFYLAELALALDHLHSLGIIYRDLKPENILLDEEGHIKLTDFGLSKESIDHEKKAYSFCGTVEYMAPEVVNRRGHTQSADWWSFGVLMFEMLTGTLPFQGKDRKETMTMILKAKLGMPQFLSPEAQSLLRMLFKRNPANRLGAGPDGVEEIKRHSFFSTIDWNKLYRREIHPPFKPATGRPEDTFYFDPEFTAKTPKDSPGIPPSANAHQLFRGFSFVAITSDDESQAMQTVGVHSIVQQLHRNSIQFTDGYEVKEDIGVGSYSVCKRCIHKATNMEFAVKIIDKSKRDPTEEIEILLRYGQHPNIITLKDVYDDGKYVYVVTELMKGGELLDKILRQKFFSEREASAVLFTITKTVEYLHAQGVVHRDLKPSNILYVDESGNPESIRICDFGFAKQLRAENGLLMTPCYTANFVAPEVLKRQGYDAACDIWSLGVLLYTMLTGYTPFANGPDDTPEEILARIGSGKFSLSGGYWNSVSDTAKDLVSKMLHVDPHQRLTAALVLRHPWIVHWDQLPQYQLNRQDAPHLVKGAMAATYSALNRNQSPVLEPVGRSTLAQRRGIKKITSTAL
# [3] = molecular target: Tyrosine-protein kinase JAK2 (Homo sapiens, UniProt O60674); experiment: Selectivity interaction (Upstate Kinase Profiler service (Millipore)) EUB0000056c JAK2; settings: at 1 µM
# [4] = molecular target: Serine/threonine-protein kinase 38 (Homo sapiens) (UniProt Q15208); experiment: Selectivity interaction (KinomeScan (DiscoverX)) EUB0000695a STK38; settings: at 100 nM
# [5] = molecular target: T1, Serine/threonine-protein kinase 17B (Homo sapiens) (UniProt O94768); experiment: Selectivity interaction (KinomeScan (DiscoverX)) EUB0001049a STK17B; settings: at 1 µM
# T1 sequence (whole entry): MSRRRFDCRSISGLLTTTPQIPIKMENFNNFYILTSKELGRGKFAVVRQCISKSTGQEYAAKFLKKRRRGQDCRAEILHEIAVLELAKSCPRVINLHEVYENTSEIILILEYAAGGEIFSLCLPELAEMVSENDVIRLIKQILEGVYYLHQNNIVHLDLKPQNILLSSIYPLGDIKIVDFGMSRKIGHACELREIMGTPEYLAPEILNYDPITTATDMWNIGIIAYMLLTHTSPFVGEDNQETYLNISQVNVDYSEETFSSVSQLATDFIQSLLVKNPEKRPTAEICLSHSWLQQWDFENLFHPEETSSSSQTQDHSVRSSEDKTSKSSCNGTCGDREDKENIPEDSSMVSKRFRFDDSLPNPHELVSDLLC
# [6] = molecular target: Protein kinase C eta type (Homo sapiens) (UniProt P24723); experiment: Selectivity interaction (Millipore kinase profiler) EUB0000124b PRKCH; settings: at 10 µM
# [7] = molecular target: T2, Discoidin domain-containing receptor 2 (Homo sapiens) (UniProt Q16832); experiment: Selectivity interaction (Ambit KINOMEscan and KiNATiv profiling in Jurkat cells) EUB0000090b DDR2; type: cell-based; settings: at 1 µM
# T2 sequence (whole entry): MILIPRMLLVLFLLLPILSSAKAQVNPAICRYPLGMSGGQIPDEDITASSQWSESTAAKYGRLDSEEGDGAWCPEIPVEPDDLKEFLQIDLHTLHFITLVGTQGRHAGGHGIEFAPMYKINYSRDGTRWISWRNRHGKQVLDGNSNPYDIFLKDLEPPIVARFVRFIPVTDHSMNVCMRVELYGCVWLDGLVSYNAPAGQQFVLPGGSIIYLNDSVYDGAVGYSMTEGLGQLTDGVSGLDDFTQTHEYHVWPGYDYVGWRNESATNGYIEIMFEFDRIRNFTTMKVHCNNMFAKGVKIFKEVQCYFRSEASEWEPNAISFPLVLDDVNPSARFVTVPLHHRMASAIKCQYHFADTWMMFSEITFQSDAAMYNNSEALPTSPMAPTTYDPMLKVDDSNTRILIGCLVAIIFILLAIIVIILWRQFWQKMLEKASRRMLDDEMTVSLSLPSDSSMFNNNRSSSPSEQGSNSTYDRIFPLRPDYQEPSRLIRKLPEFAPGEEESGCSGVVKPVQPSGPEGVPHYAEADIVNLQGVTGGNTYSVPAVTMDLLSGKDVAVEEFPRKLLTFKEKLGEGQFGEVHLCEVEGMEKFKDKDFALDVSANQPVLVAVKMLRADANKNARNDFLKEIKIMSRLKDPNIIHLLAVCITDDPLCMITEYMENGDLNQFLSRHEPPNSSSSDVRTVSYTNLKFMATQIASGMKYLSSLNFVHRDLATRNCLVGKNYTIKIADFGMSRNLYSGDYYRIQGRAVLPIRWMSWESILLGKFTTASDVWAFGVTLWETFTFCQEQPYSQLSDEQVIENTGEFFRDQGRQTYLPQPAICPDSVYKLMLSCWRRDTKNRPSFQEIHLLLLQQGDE
# [8] = molecular target: Phosphorylase b kinase gamma catalytic chain, skeletal muscle/heart isoform (Homo sapiens) (UniProt Q16816); experiment: Selectivity interaction (KinomeScan (DiscoverX)) EUB0000045b PHKG1
# Chain of Phosphorylase b kinase gamma catalytic chain, skeletal muscle/heart isoform (Homo sapiens) (Q16816 whole entry, looked up, canonical isoform): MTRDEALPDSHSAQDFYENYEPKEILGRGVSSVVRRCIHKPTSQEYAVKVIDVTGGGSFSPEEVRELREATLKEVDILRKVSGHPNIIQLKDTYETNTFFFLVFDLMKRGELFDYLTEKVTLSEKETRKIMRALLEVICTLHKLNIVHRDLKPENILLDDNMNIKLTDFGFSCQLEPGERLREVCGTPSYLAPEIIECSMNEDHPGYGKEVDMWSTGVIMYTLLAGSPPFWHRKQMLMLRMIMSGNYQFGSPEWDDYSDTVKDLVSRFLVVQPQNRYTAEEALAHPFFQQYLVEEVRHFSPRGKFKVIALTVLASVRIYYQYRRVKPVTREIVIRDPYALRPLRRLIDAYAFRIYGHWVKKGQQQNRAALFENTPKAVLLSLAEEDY
# [9] = molecular target: Ribosomal protein S6 kinase alpha-2 (Homo sapiens) (UniProt Q15349); experiment: Selectivity interaction (KinomeScan (DiscoverX)) EUB0001079a RPS6KA2; settings: at 1 µM
# Chain of Ribosomal protein S6 kinase alpha-2 (Homo sapiens) (Q15349 whole entry): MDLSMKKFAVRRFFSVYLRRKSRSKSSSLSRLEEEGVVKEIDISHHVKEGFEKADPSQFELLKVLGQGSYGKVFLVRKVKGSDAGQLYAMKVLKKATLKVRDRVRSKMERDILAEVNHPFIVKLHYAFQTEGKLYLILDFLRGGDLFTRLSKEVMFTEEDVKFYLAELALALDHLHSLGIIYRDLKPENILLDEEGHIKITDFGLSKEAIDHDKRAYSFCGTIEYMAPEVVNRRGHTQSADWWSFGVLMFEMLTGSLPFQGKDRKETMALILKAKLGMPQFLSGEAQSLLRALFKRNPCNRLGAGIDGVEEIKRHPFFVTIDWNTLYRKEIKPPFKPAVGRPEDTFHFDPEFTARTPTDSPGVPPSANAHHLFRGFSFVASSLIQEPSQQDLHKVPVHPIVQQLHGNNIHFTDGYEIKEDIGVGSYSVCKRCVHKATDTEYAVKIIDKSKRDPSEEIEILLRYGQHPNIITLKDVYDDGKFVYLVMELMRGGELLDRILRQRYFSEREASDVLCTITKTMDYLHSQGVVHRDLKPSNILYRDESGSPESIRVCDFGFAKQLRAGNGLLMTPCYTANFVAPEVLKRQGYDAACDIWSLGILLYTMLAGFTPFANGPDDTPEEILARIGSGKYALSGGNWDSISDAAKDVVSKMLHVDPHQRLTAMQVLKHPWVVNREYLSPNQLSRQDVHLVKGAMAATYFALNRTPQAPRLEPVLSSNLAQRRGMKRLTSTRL
# [10] = molecular target: Glycogen synthase kinase-3 beta (Homo sapiens, UniProt P49841); experiment: Selectivity interaction (KinomeScan (DiscoverX)) EUB0000229b GSK3B; settings: at 10 µM
# Chain of Glycogen synthase kinase-3 beta (P49841 whole entry, looked up): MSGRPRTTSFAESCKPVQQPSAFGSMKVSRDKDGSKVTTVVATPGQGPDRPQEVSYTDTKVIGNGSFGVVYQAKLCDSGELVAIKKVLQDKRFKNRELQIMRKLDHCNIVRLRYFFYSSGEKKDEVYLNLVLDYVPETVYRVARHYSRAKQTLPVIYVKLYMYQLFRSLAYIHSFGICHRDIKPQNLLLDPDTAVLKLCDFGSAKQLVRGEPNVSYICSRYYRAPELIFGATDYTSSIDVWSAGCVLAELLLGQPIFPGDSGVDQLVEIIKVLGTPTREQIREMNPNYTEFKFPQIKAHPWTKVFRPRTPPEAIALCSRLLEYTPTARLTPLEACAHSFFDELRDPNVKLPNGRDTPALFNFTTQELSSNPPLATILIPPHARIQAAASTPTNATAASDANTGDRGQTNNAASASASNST
# [11] = molecular target: Cyclin-dependent kinase 4/cyclin D1 (Homo sapiens) (UniProt P11802+P24385); experiment: (§1) Selectivity interaction (KinomeScan (DiscoverX)) EUB0000092b CDK4; type: protein-complex assay; settings: at 10 µM
# [12] = molecular target: CDK4/Cyclin D3 (Homo sapiens) (UniProt P11802+P30281); experiment: as §1; type: protein-complex assay; settings: at 10 µM
# [13] = system: Epidermal growth factor receptor (Homo sapiens), P00533 [UNDEFINED MUTATION]; settings: at 10 µM
# [14] = molecular target: Fibroblast growth factor receptor 4 (Homo sapiens, UniProt P22455); experiment: Selectivity interaction (KinomeScan (DiscoverX)) EUB0001619a FGFR4; settings: at 1 µM
# [15] = molecular target: Tyrosine-protein kinase JAK1 (Homo sapiens, UniProt P23458); experiment: Selectivity interaction (ActivX KiNativ screen (ex vivo kinase selectivity in human PBMCs)) EUB0001619a JAK1; type: cell-based; settings: PBMC, at 1 µM
# Chain of Tyrosine-protein kinase JAK1 (P23458 whole entry): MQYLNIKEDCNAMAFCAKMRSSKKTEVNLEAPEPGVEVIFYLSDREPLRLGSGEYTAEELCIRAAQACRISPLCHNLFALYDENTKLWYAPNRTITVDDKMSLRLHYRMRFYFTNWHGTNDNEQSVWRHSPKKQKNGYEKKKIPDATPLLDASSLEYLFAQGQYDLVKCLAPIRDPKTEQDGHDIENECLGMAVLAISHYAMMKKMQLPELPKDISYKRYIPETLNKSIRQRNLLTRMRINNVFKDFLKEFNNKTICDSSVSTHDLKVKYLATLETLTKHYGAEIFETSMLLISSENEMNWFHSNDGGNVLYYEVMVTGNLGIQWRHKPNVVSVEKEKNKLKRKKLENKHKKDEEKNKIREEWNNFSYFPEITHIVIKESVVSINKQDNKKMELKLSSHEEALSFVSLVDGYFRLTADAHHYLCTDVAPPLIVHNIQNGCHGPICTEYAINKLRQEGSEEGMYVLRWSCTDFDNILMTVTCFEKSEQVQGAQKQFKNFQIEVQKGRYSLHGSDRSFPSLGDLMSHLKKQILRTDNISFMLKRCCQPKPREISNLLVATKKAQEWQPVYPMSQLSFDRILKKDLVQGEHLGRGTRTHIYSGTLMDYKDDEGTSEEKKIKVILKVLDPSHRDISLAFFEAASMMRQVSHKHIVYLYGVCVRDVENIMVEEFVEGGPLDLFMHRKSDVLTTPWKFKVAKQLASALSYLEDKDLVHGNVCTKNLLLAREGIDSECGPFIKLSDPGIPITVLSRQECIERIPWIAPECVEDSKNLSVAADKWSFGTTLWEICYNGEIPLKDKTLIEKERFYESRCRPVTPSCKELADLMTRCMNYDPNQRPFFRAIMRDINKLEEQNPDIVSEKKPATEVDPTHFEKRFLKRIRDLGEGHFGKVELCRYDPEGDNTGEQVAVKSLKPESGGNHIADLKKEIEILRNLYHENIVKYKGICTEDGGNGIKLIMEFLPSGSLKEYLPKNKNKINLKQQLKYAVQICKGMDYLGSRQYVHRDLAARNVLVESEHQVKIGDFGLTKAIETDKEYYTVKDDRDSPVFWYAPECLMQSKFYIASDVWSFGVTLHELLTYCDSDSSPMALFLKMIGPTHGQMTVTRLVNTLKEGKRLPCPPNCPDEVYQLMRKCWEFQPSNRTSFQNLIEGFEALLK
# [16] = molecular target: TGF-beta receptor type-2 (Homo sapiens) (UniProt P37173); experiment: Selectivity interaction (KinomeScan (DiscoverX)) EUB0001619a TGFBR2; settings: at 1 µM
# Chain of TGF-beta receptor type-2 (Homo sapiens) (P37173 whole entry): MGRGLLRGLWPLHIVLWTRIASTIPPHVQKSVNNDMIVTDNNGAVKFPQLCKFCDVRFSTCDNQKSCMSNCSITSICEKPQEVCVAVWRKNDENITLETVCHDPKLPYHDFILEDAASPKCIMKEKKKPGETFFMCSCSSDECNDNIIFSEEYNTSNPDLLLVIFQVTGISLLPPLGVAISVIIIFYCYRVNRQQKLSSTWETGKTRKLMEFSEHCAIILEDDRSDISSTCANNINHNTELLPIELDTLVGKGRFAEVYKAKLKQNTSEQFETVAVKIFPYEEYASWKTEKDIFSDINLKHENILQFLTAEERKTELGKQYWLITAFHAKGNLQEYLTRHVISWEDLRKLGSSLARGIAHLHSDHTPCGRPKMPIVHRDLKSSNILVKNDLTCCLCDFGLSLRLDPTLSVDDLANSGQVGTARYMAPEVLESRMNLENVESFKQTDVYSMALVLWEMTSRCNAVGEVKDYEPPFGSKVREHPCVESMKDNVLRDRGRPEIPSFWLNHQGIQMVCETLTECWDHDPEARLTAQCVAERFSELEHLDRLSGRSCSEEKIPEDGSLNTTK
# Chain of CDK1/Cyclin A (Homo sapiens) (P06493 whole entry, looked up): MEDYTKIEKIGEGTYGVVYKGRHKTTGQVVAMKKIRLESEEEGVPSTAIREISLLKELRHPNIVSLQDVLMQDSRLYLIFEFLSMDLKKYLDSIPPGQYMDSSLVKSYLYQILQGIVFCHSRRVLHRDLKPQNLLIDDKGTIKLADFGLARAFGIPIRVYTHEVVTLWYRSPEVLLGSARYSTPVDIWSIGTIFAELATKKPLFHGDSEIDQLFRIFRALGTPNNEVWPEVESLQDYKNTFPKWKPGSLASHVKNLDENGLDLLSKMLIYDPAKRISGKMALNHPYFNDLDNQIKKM
# Chain of CDK1/Cyclin A (Homo sapiens) (P20248 whole entry, looked up): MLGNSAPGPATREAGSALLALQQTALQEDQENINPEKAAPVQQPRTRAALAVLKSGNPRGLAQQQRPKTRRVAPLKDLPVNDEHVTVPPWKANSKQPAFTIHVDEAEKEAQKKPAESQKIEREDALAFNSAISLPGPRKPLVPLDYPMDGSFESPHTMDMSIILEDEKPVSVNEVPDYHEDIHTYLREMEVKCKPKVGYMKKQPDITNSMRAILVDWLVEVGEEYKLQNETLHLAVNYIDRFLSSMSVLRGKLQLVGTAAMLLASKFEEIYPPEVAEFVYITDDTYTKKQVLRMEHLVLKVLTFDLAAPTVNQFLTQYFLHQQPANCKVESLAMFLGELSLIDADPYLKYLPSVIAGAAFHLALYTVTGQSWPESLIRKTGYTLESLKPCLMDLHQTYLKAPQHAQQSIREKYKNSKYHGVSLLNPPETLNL
smiles,measurement,setting,value
Cn1cc(-n2cnc3c(NCc4nc5cc(Cl)c(Cl)cc5[nH]4)nc(N4CCOCC4)nc32)cn1,% of inhibition,[1],-246%
CNC(=O)Nc1ccc(-c2nc(N3CC4CCC(C3)O4)c3cnn(C4CCC5(CC4)OCCO5)c3n2)cc1,% of control,[2],100%
Cc1ccc(-c2ccc3c(ccc4sc5c(c43)NC[C@@H](C)NC5=O)n2)cn1,% of inhibition,[3],14%
Cc1cc(F)c(C(=O)Nc2cccc(-c3nncn3C(C)C)n2)cc1-n1cnc(C2CC2)c1,% of control,[4],93%
COc1cc(Nc2nc(C)cc(-c3cnn4nc(OC)ccc34)n2)cc(C(F)(F)F)c1,% of control,[5],81%
CC(=O)Nc1cccc(-n2c(=O)n(C3CC3)c(=O)c3c(Nc4ccc(I)cc4F)n(C)c(=O)c(C)c32)c1,% of control,[6],107%
CN(C)C/C=C/C(=O)Nc1ccc(C(=O)N2CCCC(Nc3ncc(Cl)c(-c4c[nH]c5ccccc45)n3)C2)cc1 (configuration not stated),% of control,[7],100%
C=CC(=O)Nc1cc(-n2c(=O)ccc3cnc4ccc(-c5ccc(NS(C)(=O)=O)cc5)cc4c32)ccc1C,% of control,[8]; at 1 µM,86%
same,% of control,[8]; at 10 µM,97%
Nc1cnc(N2CCc3cc(S(=O)(=O)Nc4c(F)cc(Cl)cc4F)cc(N4CCCC4=O)c32)nc1 [TP-020n],% of control,[9],88%
COc1cc(N(C)c2ccnc3ccc(C(F)(F)F)cc23)cc(OC)c1OC,% binding,[10],81%
CCC(=O)N1CCN(c2ccc(-n3c(=O)ccc4cnc5ccc(-c6cnc7ccccc7c6)cc5c43)cc2C(F)(F)F)CC1,% of control,[11],100%
same,% of control,[12],87%
Cc1cc([C@@H](C)Nc2ccccc2C(=O)O)c2nc(N3CCOCC3)cc(=O)n2c1 [AZD-6482],% of control,[13],100%
N#Cc1cccc(-c2c[nH]c3ncnc(N4CCOCC4)c23)c1,% of control,[14],74%
same,% of inhibition,[15],19%
same,% of control,[16],100%
